Measurements taken from ChEMBL document CHEMBL1130257, “(Aryloxy)alkylamines as selective human dopamine D4 receptor antagonists: potential antipsychotic agents” (J Med Chem, 1997).
pKi: −log10 of the molar value.

Columns and labels:
D(4) dopamine receptor = target: T1, D(4) dopamine receptor (Homo sapiens, UniProt P21917); assay: biochemical
T1 sequence (P21917 whole entry): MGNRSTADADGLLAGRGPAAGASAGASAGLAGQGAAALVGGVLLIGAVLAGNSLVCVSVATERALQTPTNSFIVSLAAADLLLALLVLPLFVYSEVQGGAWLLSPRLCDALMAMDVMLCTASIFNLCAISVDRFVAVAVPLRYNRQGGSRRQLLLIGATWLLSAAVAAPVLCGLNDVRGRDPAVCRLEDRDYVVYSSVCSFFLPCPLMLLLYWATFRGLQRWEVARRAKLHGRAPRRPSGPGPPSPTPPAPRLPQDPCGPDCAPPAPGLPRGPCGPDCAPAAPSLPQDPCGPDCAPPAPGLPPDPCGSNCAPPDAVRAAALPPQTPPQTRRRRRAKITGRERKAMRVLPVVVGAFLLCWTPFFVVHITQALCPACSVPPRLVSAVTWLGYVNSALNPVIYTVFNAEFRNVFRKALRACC
Description: Binding affinity to recombinant human dopamine receptor D4 expressed in CHO cells by displacement of [3H]spiperone

D(3) dopamine receptor = D(3) dopamine receptor (Homo sapiens, UniProt P35462); assay: biochemical
Chain of D(3) dopamine receptor (P35462 whole entry): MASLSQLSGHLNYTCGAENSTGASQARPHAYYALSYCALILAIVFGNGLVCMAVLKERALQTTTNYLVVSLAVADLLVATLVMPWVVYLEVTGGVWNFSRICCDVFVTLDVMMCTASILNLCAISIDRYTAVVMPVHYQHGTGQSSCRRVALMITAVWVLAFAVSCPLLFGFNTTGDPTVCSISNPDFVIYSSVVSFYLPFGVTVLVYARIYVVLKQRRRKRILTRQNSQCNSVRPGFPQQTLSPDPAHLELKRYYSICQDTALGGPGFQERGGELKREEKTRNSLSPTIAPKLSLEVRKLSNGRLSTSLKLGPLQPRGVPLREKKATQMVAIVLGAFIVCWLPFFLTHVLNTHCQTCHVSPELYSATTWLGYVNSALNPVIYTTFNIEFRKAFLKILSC
Description: Binding affinity against cloned human dopamine receptor D3 expressed in Chinese hamster ovary (CHO) K-1 cells by displacement of [3H]spiperone.

Row | SMILES | pKi (D(4) dopamine receptor) | pKi (D(3) dopamine receptor)
1 | O=[N+]([O-])c1ccc(OCCNCCCOc2ccccc2)cc1 | 8.36 | 6.46
2 | Clc1ccccc1OCCNCCCOc1ccccc1 | 8.36 | 7.77
3 | O=C(O)c1ccc(OCCNCCCOc2ccccc2)cc1 | < 6.00 | –
4 | Cc1ccc(OCCCNCCOc2ccc(C)cc2)cc1 | 7.96 | 6.63
5 | Clc1ccc(OCCNCCCOc2ccc(Br)cc2)cc1 | 7.42 | –
6 | Cc1ccc(OCCNCCCOc2ccccc2)cc1Cl | 9.28 | 8.41
7 | Clc1ccc(SCCNCCCOc2ccccc2)cc1 | 7.48 | –
8 | Cc1ccc(OCCNCCCOc2ccc(Br)cc2)cc1 | 7.57 | 5.77
9 | c1ccc(CCCNCCCOc2ccccc2)cc1 | 8.48 | 7.77
10 | c1ccc(OCCCNCCOc2ccccc2)cc1 | 8.70 | 6.87
11 | Cc1ccc(OCCCNCCOc2ccccc2)cc1 | 8.57 | –
12 | Cc1ccccc1OCCNCCCOc1ccccc1 | 7.13 | –
13 | Oc1ccc(OCCNCCCOc2ccccc2)cc1 | 8.51 | 6.63
14 | Cc1ccc(OCCCNCCOc2ccc(Cl)cc2)cc1 | 8.25 | 6.75
15 | Cc1ccc(SCCNCCCOc2ccccc2)cc1 | 7.52 | –
16 | COc1ccc(OCCNCCCOc2ccccc2)cc1 | 8.27 | 6.43
17 | Cc1ccc(CCCNCCCOc2ccccc2)cc1 | 8.33 | –

Continued by rising pKi (D(4) dopamine receptor), values first:

Row | pKi (D(4) dopamine receptor) | pKi (D(3) dopamine receptor) | SMILES
18 | 8.85 | 7.02 | Clc1ccc(OCCNCCCSc2ccccc2)cc1
19 | 8.92 | 6.72 | Cc1ccc(OCCNCCCOc2cccc(C)c2)cc1
20 | 8.96 | 6.42 | Cc1ccc(OCCNCCCOc2ccccc2C)cc1
21 | 9.02 | 6.63 | Cc1ccc(OCCNCCCOc2ccc(F)cc2)cc1
22 | 9.08 | 7.01 | Fc1ccc(OCCCNCCOc2ccc(Cl)cc2)cc1
23 | 9.10 | 7.25 | Cc1ccc(OCCNCCCSc2ccccc2)cc1
24 | 9.28 | 6.77 | Cc1ccc(OCCNCCCOc2ccccc2)cc1
25 | 9.34 | – | Cc1cccc(OCCNCCCOc2ccccc2)c1
26 | 9.46 | 7.14 | Cc1ccc(OCCNCCCOc2ccccc2)cc1C
27 | 9.51 | – | Clc1cccc(OCCNCCCOc2ccccc2)c1
